Test results taken from article PMC11173104, “Synthesis and Antioxidant Activity of N-Benzyl-2-[4-(aryl)-1H-1,2,3-triazol-1-yl]ethan-1-imine Oxides” (International Journal of Molecular Sciences, 2024).

Biological target: T1, soybean LOX (Glycine max, UniProt P08170)
T1 construct: purchased Aldrich Chemical Co., Milwaukee, WI, USA
T1 sequence (P08170 1-839): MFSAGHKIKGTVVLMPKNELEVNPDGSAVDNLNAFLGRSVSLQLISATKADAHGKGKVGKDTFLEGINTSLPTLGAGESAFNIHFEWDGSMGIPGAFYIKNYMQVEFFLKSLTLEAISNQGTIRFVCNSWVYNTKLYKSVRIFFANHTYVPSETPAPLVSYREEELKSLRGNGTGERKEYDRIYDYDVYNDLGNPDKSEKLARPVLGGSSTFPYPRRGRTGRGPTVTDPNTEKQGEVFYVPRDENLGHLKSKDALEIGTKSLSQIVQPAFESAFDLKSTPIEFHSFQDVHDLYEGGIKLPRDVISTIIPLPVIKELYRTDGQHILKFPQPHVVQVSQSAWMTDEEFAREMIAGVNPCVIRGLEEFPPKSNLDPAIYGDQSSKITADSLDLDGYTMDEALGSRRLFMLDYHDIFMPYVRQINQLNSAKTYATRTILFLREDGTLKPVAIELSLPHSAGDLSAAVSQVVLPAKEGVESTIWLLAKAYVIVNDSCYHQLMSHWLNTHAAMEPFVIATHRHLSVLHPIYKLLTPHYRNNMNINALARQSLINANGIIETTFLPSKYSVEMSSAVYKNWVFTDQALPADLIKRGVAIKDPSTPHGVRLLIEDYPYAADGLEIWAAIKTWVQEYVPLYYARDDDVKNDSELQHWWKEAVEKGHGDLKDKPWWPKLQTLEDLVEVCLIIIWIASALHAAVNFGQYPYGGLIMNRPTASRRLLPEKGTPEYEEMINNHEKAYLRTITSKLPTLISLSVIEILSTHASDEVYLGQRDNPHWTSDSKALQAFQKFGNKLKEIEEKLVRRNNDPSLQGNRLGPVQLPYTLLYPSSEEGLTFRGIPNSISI
Assay: Soybean LOX inhibition in vitro (UV absorbance-based)
Assay type: biochemical
Conditions: Tris pH 9, sodium linoleate
Text: The appropriate stimulation of neutrophils cleaves arachidonic acid (AA) from membrane phospholipids, producing leukotrienes through lipoxygenase. Leukotriene B4 (LTB4) is a potent mediator of inflammation, considered to be important in the pathogenesis of neutrophil-mediated inflammatory diseases with a marked relation to the severity of cardiovascular diseases, stroke, and cancer. The enzyme lipoxygenase catalyzes the first two steps in the metabolism of AA, which is cleaved from membrane phospholipids to leukotrienes (LTB4). LTB4 generation is important in the pathogenesis of neutrophil-mediated inflammatory diseases.
The tested compounds dissolved in DMSO were incubated at rt with sodium linoleate (0.1 mL) and 0.2 mL of the enzyme solution (1/9 × 10^−4 w/v in saline) in buffer Tris pH 9.

| IC50 [µM] | SMILES |
| --- | --- |
| 85 | [O-][N+](=CCn1cc(-c2ccccc2)nn1)Cc1ccccc1 [Nitrone 10a, N-Benzyl-2-(4-phenyl-1H-1,2,3-triazol-1-yl)ethan-1-imine Oxide] |
| 10 | [O-][N+](=CCn1cc(-c2ccc(F)cc2F)nn1)Cc1ccccc1 [Nitrone 10c, N-Benzyl-2-[4-(2,4-difluorophenyl)-1H-1,2,3-triazol-1-yl]ethan-1-imine Oxide] |
| 62.5 | [O-][N+](=CCn1cc(-c2ccc(F)cc2)nn1)Cc1ccccc1 [Nitrone 10b, N-Benzyl-2-[4-(4-fluorophenyl)-1H-1,2,3-triazol-1-yl]ethan-1-imine Oxide] |

Same assay, conditions: at 100 µM

| inhibition at 100 µM [%] | SMILES |
| --- | --- |
| 45 | Cc1cc(-c2cn(CC=[N+]([O-])Cc3ccccc3)nn2)ccc1F [Nitrone 10d, N-Benzyl-2-[4-(4-fluoro-3-methylphenyl)-1H-1,2,3-triazol-1-yl]ethan-1-imine Oxide] |

Tested on: not given
Assay: not given
Conditions: not given

| melting point [°C] | SMILES |
| --- | --- |
| 134 to 136 | [O-][N+](=CCn1cc(-c2ccccc2)nn1)Cc1ccccc1 [Nitrone 10a, N-Benzyl-2-(4-phenyl-1H-1,2,3-triazol-1-yl)ethan-1-imine Oxide] |
| 112 to 113 | [O-][N+](=CCn1cc(-c2ccc(F)cc2F)nn1)Cc1ccccc1 [Nitrone 10c, N-Benzyl-2-[4-(2,4-difluorophenyl)-1H-1,2,3-triazol-1-yl]ethan-1-imine Oxide] |
| 129 to 131 | [O-][N+](=CCn1cc(-c2ccc(F)cc2)nn1)Cc1ccccc1 [Nitrone 10b, N-Benzyl-2-[4-(4-fluorophenyl)-1H-1,2,3-triazol-1-yl]ethan-1-imine Oxide] |
| 131 to 133 | Cc1cc(-c2cn(CC=[N+]([O-])Cc3ccccc3)nn2)ccc1F [Nitrone 10d, N-Benzyl-2-[4-(4-fluoro-3-methylphenyl)-1H-1,2,3-triazol-1-yl]ethan-1-imine Oxide] |

Tested on: not listed separately
Assay: Inhibition of AAPH-induced linoleic acid lipid peroxidation (ILP)
Conditions: 100 µM, 37 °C, pH 7.4
Text: In our studies, the water-soluble azo AAPH was used as a thermal free radical initiator to induce the oxidative changes of linoleic acid to conjugated diene hydroperoxide. All nitrones except for 10c presented inhibition values (75–87%) lower than the common standard Trolox (93%) (Table 1). […] Lipophilicity seems to play a significant role related to a positive result since the inserted methyl group in compound 10b (75%) increases the lipophilicity of compound 10d driving it to higher inhibition (87%).
Ten microliters of the 16 mM linoleic acid sodium salt solution were added to the UV cuvette containing 0.93 mL of the 0.05 M phosphate buffer, pH 7.4 prethermostated at 37 °C. The oxidation reaction was initiated at 37 °C under air by the addition of 50 μL of the 40 mM AAPH solution. Oxidation was carried out in the presence of 10 μL of the compounds’ stock 10 mM solution in DMSO, in the assay. Lipid oxidation was measured in the presence of the same level of DMSO. The rate of oxidation at 37 °C was recorded as the absorption values at 234 nm and compared to Trolox (Table 1).

| SMILES | ILP (%) |
| --- | --- |
| Cc1c(C)c2c(c(C)c1O)CCC(C)(C(=O)O)O2 (stereo not drawn) [Trolox, reference compound] | 93 |
| [O-][N+](=CCn1cc(-c2ccccc2)nn1)Cc1ccccc1 [Nitrone 10a, N-Benzyl-2-(4-phenyl-1H-1,2,3-triazol-1-yl)ethan-1-imine Oxide] | 81 |
| [O-][N+](=CCn1cc(-c2ccc(F)cc2)nn1)Cc1ccccc1 [Nitrone 10b, N-Benzyl-2-[4-(4-fluorophenyl)-1H-1,2,3-triazol-1-yl]ethan-1-imine Oxide] | 75 |
| Cc1cc(-c2cn(CC=[N+]([O-])Cc3ccccc3)nn2)ccc1F [Nitrone 10d, N-Benzyl-2-[4-(4-fluoro-3-methylphenyl)-1H-1,2,3-triazol-1-yl]ethan-1-imine Oxide] | 87 |

Tested on: not listed separately
Assay: ABTS•+ decolorization assay in ethanolic solution
Conditions: 100 µM; 734 nm, 1 min
Description: ABTS^•+ was produced according to the described procedure as follows. An ABTS stock solution in water (7 mM) was mixed with potassium persulfate (2.45 mM) and left in a dark at room temperature for 12–16 h before use. A total of 10 µL of the investigated compounds were added to ethanol together with the cationic radical. The results were taken at 734 nm, after 1 min of the mixing procedure. Trolox was used as a positive standard (Table 1).

| SMILES | ABTS•+ (%) |
| --- | --- |
| Cc1c(C)c2c(c(C)c1O)CCC(C)(C(=O)O)O2 (stereo not drawn) [Trolox, reference compound] | 91 |
| [O-][N+](=CCn1cc(-c2ccccc2)nn1)Cc1ccccc1 [Nitrone 10a, N-Benzyl-2-(4-phenyl-1H-1,2,3-triazol-1-yl)ethan-1-imine Oxide] | 8 |
| [O-][N+](=CCn1cc(-c2ccc(F)cc2F)nn1)Cc1ccccc1 [Nitrone 10c, N-Benzyl-2-[4-(2,4-difluorophenyl)-1H-1,2,3-triazol-1-yl]ethan-1-imine Oxide] | 23 |
| [O-][N+](=CCn1cc(-c2ccc(F)cc2)nn1)Cc1ccccc1 [Nitrone 10b, N-Benzyl-2-[4-(4-fluorophenyl)-1H-1,2,3-triazol-1-yl]ethan-1-imine Oxide] | 46 |
| Cc1cc(-c2cn(CC=[N+]([O-])Cc3ccccc3)nn2)ccc1F [Nitrone 10d, N-Benzyl-2-[4-(4-fluoro-3-methylphenyl)-1H-1,2,3-triazol-1-yl]ethan-1-imine Oxide] | 23 |

Tested on: not listed separately
Assay: Reducing activity (RA): interaction with the stable free radical DPPH
Conditions: 20 min, 100 µM
Description: DPPH is a stable free radical, advantageous for testing compounds in an ethanolic solution, which in its oxidized form presents a maximum absorbance at about 517 nm. The DPPH method is independent of the molecule’s polarity. […] Nitrones 10b, 10c, and 10d highly interact with DPPH (64.5–81%) after 20 min, whereas 10a presents a lower value. In general, the insertion of a substituent increases the reducing activity (RA). […] It seems that an acceptor, such as a fluorine atom, with small molar refractivity (MR) in the para position offers antioxidant ability. […] RA is not influenced by lipophilicity within this nitrones group. The interaction values are increased for all after 60 min (78–81%), showing time dependency. For the sake of comparison, NDGA was used as a standard reference compound.
To an ethanolic solution of DPPH (0.05 mM) in absolute ethanol, 10 µL from a stock solution (10 mM) in the DMSO of the compounds was added. The mixture was shaken vigorously and allowed to stand for 20 min or 60 min; absorbance at 517 nm was determined spectrophotometrically and the percentage of activity was calculated. All tests were undertaken on three or four replicates and the results were averaged (Table 1). NDGA was used as a reference compound.

| SMILES | RA (%) 20 min |
| --- | --- |
| [O-][N+](=CCn1cc(-c2ccccc2)nn1)Cc1ccccc1 [Nitrone 10a, N-Benzyl-2-(4-phenyl-1H-1,2,3-triazol-1-yl)ethan-1-imine Oxide] | 57% |
| CC(Cc1ccc(O)c(O)c1)C(C)Cc1ccc(O)c(O)c1 (stereo not drawn) [NDGA, nordihydroguaiaretic acid, reference compound] | 88% |
| [O-][N+](=CCn1cc(-c2ccc(F)cc2F)nn1)Cc1ccccc1 [Nitrone 10c, N-Benzyl-2-[4-(2,4-difluorophenyl)-1H-1,2,3-triazol-1-yl]ethan-1-imine Oxide] | 79/79% |
| [O-][N+](=CCn1cc(-c2ccc(F)cc2)nn1)Cc1ccccc1 [Nitrone 10b, N-Benzyl-2-[4-(4-fluorophenyl)-1H-1,2,3-triazol-1-yl]ethan-1-imine Oxide] | 81/81% |
| Cc1cc(-c2cn(CC=[N+]([O-])Cc3ccccc3)nn2)ccc1F [Nitrone 10d, N-Benzyl-2-[4-(4-fluoro-3-methylphenyl)-1H-1,2,3-triazol-1-yl]ethan-1-imine Oxide] | 64.4% |

Same assay, conditions: 60 min, 100 µM

| SMILES | RA (%) 60 min |
| --- | --- |
| [O-][N+](=CCn1cc(-c2ccccc2)nn1)Cc1ccccc1 [Nitrone 10a, N-Benzyl-2-(4-phenyl-1H-1,2,3-triazol-1-yl)ethan-1-imine Oxide] | 78% |
| CC(Cc1ccc(O)c(O)c1)C(C)Cc1ccc(O)c(O)c1 (stereo not drawn) [NDGA, nordihydroguaiaretic acid, reference compound] | 96% |
| [O-][N+](=CCn1cc(-c2ccc(F)cc2F)nn1)Cc1ccccc1 [Nitrone 10c, N-Benzyl-2-[4-(2,4-difluorophenyl)-1H-1,2,3-triazol-1-yl]ethan-1-imine Oxide] | 79/79% |
| [O-][N+](=CCn1cc(-c2ccc(F)cc2)nn1)Cc1ccccc1 [Nitrone 10b, N-Benzyl-2-[4-(4-fluorophenyl)-1H-1,2,3-triazol-1-yl]ethan-1-imine Oxide] | 81/81% |
| Cc1cc(-c2cn(CC=[N+]([O-])Cc3ccccc3)nn2)ccc1F [Nitrone 10d, N-Benzyl-2-[4-(4-fluoro-3-methylphenyl)-1H-1,2,3-triazol-1-yl]ethan-1-imine Oxide] | 79.5% |

Tested on: not given
Assay: not given
Set-up: method as in PMID 36670898
Conditions: previous work; cited from earlier work

| SMILES | hydroxyl radical scavenging (%) |
| --- | --- |
| Cc1c(C)c2c(c(C)c1O)CCC(C)(C(=O)O)O2 (stereo not drawn) [Trolox, reference compound] | 88 |

Tested on: not listed separately
Assay: Competition with DMSO for hydroxyl radicals
Conditions: 100 µM; Fe3+/ascorbic acid, 37 °C, 30 min
Description: Hydroxyl (^•OH) free radical is counted as the most toxic. As a result, it reacts with important biological molecules such as DNA, lipids, or carbohydrates. We found it interesting to test the scavenging activity of the compounds in competition with DMSO.
The hydroxyl radicals were produced by the Fe^3+/ascorbic acid system and detected by the determination of the formaldehyde produced from the oxidation of DMSO. EDTA (0.1 mM), Fe^3+ (167 μM), DMSO (33 mM) in phosphate buffer (50 mM, pH 7.4), the tested compounds (100 µM) and ascorbic acid (10 mM) were inserted, mixed, and incubated in test tubes at 37 °C for 30 min. The reaction was stopped by CCl3COOH (17% w/v) and the % scavenging activity of the nitrones for hydroxyl radicals was recorded. Trolox was used as a positive control (Table 1).

| SMILES | Scavenging Activity for HO• (%) |
| --- | --- |
| Cc1c(C)c2c(c(C)c1O)CCC(C)(C(=O)O)O2 (stereo not drawn) [Trolox, reference compound] | 73% |
| [O-][N+](=CCn1cc(-c2ccccc2)nn1)Cc1ccccc1 [Nitrone 10a, N-Benzyl-2-(4-phenyl-1H-1,2,3-triazol-1-yl)ethan-1-imine Oxide] | no |
| [O-][N+](=CCn1cc(-c2ccc(F)cc2F)nn1)Cc1ccccc1 [Nitrone 10c, N-Benzyl-2-[4-(2,4-difluorophenyl)-1H-1,2,3-triazol-1-yl]ethan-1-imine Oxide] | no |
| [O-][N+](=CCn1cc(-c2ccc(F)cc2)nn1)Cc1ccccc1 [Nitrone 10b, N-Benzyl-2-[4-(4-fluorophenyl)-1H-1,2,3-triazol-1-yl]ethan-1-imine Oxide] | no |
| Cc1cc(-c2cn(CC=[N+]([O-])Cc3ccccc3)nn2)ccc1F [Nitrone 10d, N-Benzyl-2-[4-(4-fluoro-3-methylphenyl)-1H-1,2,3-triazol-1-yl]ethan-1-imine Oxide] | no |
